Among the data in PubChem BioAssay AID1159563 (GlaxoSmithKline (GSK), 2015) are IC50 values, retold here.

Calls of active or inactive are those of the source. The rule behind the calls is not given here.

This test deals with HepG2 cytotoxicity. Description: human hepatoma cell viability loss – cytotoxicity control (AID 1159563).
Broadly, the IC50 is the concentration needed to halve the response being measured. For the molecule `O=C(NNC(=O)c1ccccn1)c1ccc(-c2ccccc2)cc1`, the IC50 is > 100 µM (inactive). Under `Cc1cc(NC(=O)C2CCCCC2)n(-c2nc3c(c(=O)[nH]2)CCC3)n1` stands 50 µM; under `NC(N)=Nc1nc(-c2ccc(NC(N)=NCCN3CCCC3)cc2)cs1`, > 100 µM (inactive). Next, `COc1ccc(OC)c2c(=O)c(Cc3ccccc3)c(C)[nH]c12`: > 100 µM (inactive).

As for `CN(Cc1cc2ccccc2s1)c1ncc2c(N)nc(N)nc2n1`, the IC50 was 40 µM. For the molecule `CCc1ccc2nc(NC(=O)c3cc(N4CCOCC4)ccn3)sc2c1`, the IC50 is > 100 µM (inactive). Under `CC(Cn1ccnc1)NC(=O)C1CC1c1cccc(Cl)c1Cl` (centres undefined) stands > 100 µM (inactive); under `COc1ccc(C(=O)Nc2c(C)nn(COc3cccc(C(F)(F)F)c3)c2C)cc1`, > 100 µM (inactive). Under `O=C(Nc1ccccc1C(=O)Nc1ccccn1)c1ccco1` stands > 100 µM (inactive); under `Cc1cn[nH]c1C1CCCN(Cc2nc3ccccc3n2C)C1` (centres undefined), 50 µM; under `Clc1cc(Br)ccc1OCCCCn1ccnc1`, 50 µM. Next, `O=c1oc2ccccc2n1C1CCN(Cc2ccccc2-c2cccnc2)CC1`: > 100 µM (inactive); `O=[N+]([O-])c1ccc(-c2nnn(-c3ccc(Cl)cc3)n2)o1`: > 100 µM (inactive). In the case of `Oc1cccnc1-c1n[nH]c(Cc2ccccc2)n1`, the IC50 was 79 µM. With `CCc1cccc(-n2nc(OCC(=O)NC3CCCC3)c3cccnc32)c1`, the IC50 is > 100 µM (inactive). Under `Cc1nc(-c2nc(NCc3ccc(Cl)cc3)c3cccnc3c2O)n[nH]1` stands 16 µM. Next, `Cn1nc([N+](=O)[O-])nc1Oc1ccc(C(=O)c2ccccc2)cc1`: > 100 µM (inactive); `CN(C)S(=O)(=O)c1ccc(-c2cnc(N)c(-c3nc4ccc(F)cc4[nH]3)c2)cc1`: > 100 µM (inactive); `Cc1ccc(S(C)(=O)=O)cc1Nc1nccc(-c2sc(N)nc2-c2ccccc2)n1`: 32 µM. Under `Cc1cc(Nc2cc(C3CC3)[nH]n2)nc(N2CCC[C@H]2C(N)=O)n1` stands > 100 µM (inactive); under `Cc1[nH]nc(Nc2ccnc3[nH]ccc23)c1C`, > 100 µM (inactive); under `CN(Cc1ccc(C(N)=O)cc1)C(c1ccc(F)cc1)c1cccnc1` (centres undefined), > 100 µM (inactive). `Cc1ccccc1CNc1cc(C2CC2)nc(-c2nccn2C)n1`: the IC50 is 16 µM. Under `O=C(NCCc1cccnc1)c1csc(-c2ccccc2)n1` stands > 100 µM (inactive).

Turning to `Cn1nccc1-c1cc(OC(CN)c2ccccc2)cnc1-c1ccco1` (centres undefined), the IC50 was 50 µM. With `O=C(NCC(c1cccs1)N1CCOCC1)c1ccc([N+](=O)[O-])o1` (centres undefined), the IC50 is 20 µM. Turning to `O=c1ccc2ccc(F)c3c2n1C[C@H]3CN1CCC(NCc2cc3ccccc3o2)CC1`, the IC50 was 40 µM. For `Cc1cc(C)cc(NS(=O)(=O)c2cc(-c3cc(C)[nH]n3)ccc2C)c1`, the IC50 is 63 µM.

In the case of `CC(C)(C)c1cc(NC2CC2)nc(-c2ccccn2)n1`, the IC50 was > 100 µM (inactive). Under `CN(C)c1ccc(-c2cc3nccnc3c(OC[C@H]3CCCNC3)n2)cn1` stands 63 µM. As for `CCC(c1ccc(F)cc1)n1cncc1-c1cnn(C)c1` (centres undefined), the IC50 was > 100 µM (inactive). As to `CC(C)c1sc(Cl)nc1C(=O)NCCc1nc(C(=O)Nc2ccc3c(c2)OCO3)cs1`, the IC50 was > 100 µM (inactive). As for `COc1ccc(-c2cc(C)no2)cc1S(=O)(=O)Nc1ccc(C)c(C)c1`, the IC50 is > 100 µM (inactive). For the molecule `C[C@@H](Oc1cc(-n2cnc3ccc(O[C@H]4CCNC4)cc32)sc1C(N)=O)c1ccccc1Cl`, the IC50 was 16 µM.

Turning to `CCc1cc(C(=O)Nc2nccn2-c2ccccc2)cs1`, the IC50 is > 100 µM (inactive). On to `CCOc1ccc(Nc2ccc(S(=O)(=O)N3CCN(C)CC3)cc2[N+](=O)[O-])cc1OCC`, for which the IC50 is > 100 µM (inactive). With `COc1ccc(OC)c(NC(=O)c2ccc([N+](=O)[O-])o2)c1`, the IC50 is 20 µM. On to `NCc1csc(Nc2cc(Oc3ccccc3)ncn2)n1`, for which the IC50 was > 100 µM (inactive). Under `CCc1c(C)nc(-n2nc(C)cc2NC(=O)COc2ccccc2F)[nH]c1=O` stands > 100 µM (inactive); under `COc1cnc2ccc(=O)n(CCN3CCC(NC/C=C/c4cc(F)ccc4F)CC3)c2c1`, 63 µM.

Consider `COc1ccc(CN(C)Cc2ccncc2)cc1-c1ccc(S(=O)(=O)NC2CCC2)s1`, for which the IC50 is > 100 µM (inactive).

Take `O=C1CCCCCC1(Cc1cnc[nH]1)c1ccc(Cl)cc1Cl` (centres undefined): the IC50 is 79 µM. As to `c1ccc(Nc2nc3ccccc3[nH]2)nc1`, the IC50 was 79 µM. Next, `O=C(c1cccc(Cl)c1Cl)N1CCn2c1nc(-c1ccncc1)cc2=O`: > 100 µM (inactive); `Cc1cccc(NS(=O)(=O)c2cnc3sc(C)cn3c2=O)c1`: > 100 µM (inactive); `CC(=O)Nc1ccc(Nc2nccc(-c3cnn4ncccc34)n2)cc1C(F)(F)F`: > 100 µM (inactive). Next, `CC(CCc1ccccc1)NC(=O)CN(Cc1ccccn1)Cc1ccccn1` (centres undefined): > 160 µM (inactive); `CCCc1cc(C(=O)Nc2ncc(-c3cccc(Br)c3)n2C)n[nH]1`: > 100 µM (inactive); `CCc1ccccc1[C@@H](C)NC(=O)c1cnc2c(cnn2CC)c1NC1CCN(C(N)=O)CC1`: > 100 µM (inactive). Under `CN(Cc1ccccc1)Cc1nnnn1C1CCN(Cc2ccc(-n3ccnc3)cc2)CC1` stands > 100 µM (inactive); under `Cc1ccc(S(=O)(=O)Nc2ccc(CN3CCN(C(=O)c4cccc(C)c4)CC3)cc2)cc1`, > 100 µM (inactive); under `Cc1cc2nc(N3CC[C@H]3C(N)=O)nc(Nc3cc(C4CC4)[nH]n3)c2s1`, > 100 µM (inactive). Consider `COc1ccc(S(=O)(=O)Nc2ccccc2OC)cc1NC(=O)CCCc1c[nH]c2ccccc12`, for which the IC50 is > 100 µM (inactive). Next, `O=C(Nc1nc(-c2ccccn2)cs1)c1ccccc1-n1cnnn1`: 1.6 µM; `COc1ccc(-c2nc3ncccc3o2)cc1NC(=O)c1cccs1`: > 100 µM (inactive). With `CCCn1c(NC(=O)Cc2ccc(Cl)cc2)nc2ccccc21`, the IC50 is > 100 µM (inactive). Next, `Cc1ccnc(NS(=O)(=O)c2ccc(NC(=O)c3ccc([N+](=O)[O-])s3)cc2)n1`: 16 µM; `O=c1cc(CSc2ccc(Cl)cc2)nc(-c2ccccn2)[nH]1`: > 100 µM (inactive); `CC1=NN(C(=O)CCn2cnc([N+](=O)[O-])n2)C(O)(C(F)(F)F)C1` (centres undefined): > 100 µM (inactive). Next, `NC(=O)c1ncccc1Nc1nc(NC2CCC(O)CC2)ncc1Br` (centres undefined): > 100 µM (inactive); `O=c1ccn(-c2ccc([N+](=O)[O-])cc2Cl)c2ccc(F)cc12`: > 100 µM (inactive). Regarding `CN(C)c1ncc(-c2cncn2CCOc2ccc(Cl)cc2)cn1`, the IC50 was > 100 µM (inactive).

As for `CC(C)(C)CC(=O)NCCc1csc(-c2ccc(F)cc2)n1`, the IC50 is > 100 µM (inactive). With `CC(C)n1c(-c2nonc2N)nc2cccc(OCCN3CCCC3)c21`, the IC50 was > 100 µM (inactive).

As for `NCc1ccc2c(Cl)cc(Cl)c(O)c2n1`, the IC50 was 25 µM. Under `Nc1nc(-c2ccccn2)nc(N)c1Cc1c(F)cccc1Cl` stands 20 µM; under `COc1ccc2ncc(F)c(NC(=O)C3(O)CCC(NCc4ccc5c(c4)OCCO5)CC3)c2n1` (centres undefined), 50 µM; under `CC(c1ccc2c(c1)CCCC2)N(C)c1ncc2c(N)nc(N)nc2n1` (centres undefined), 50 µM.

As to `C=CCOCC1Cn2nc([N+](=O)[O-])nc2O1` (centres undefined), the IC50 was > 100 µM (inactive).

Regarding `CNc1cc(C)nc(C2CN(C(=O)c3n[nH]c4ccccc34)CCO2)c1` (centres undefined), the IC50 was > 100 µM (inactive). Under `O=C(CSc1ccc(-c2ccccn2)nn1)Nc1ccc(Cl)cc1` stands > 100 µM (inactive). Turning to `COc1cc(-c2nc(N3CCOCC3)sc2-c2ccnc(NC3CCOCC3)n2)ccc1Cl`, the IC50 is > 100 µM (inactive).

Take `CN(Cc1cccnc1)Cc1ccc(N2CCN(C(=O)C3(c4ccc(Cl)cc4)CC3)CC2)nc1`: the IC50 was > 100 µM (inactive). Under `Cc1ccc(NC(=O)c2ccc(Cl)c(NC(=O)c3ccc([N+](=O)[O-])cc3)c2)cc1` stands > 100 µM (inactive); under `CCOc1ccc(OCC(=O)N2c3ccccc3CC2C(=O)NC)cc1` (centres undefined), > 100 µM (inactive). Next, `COc1cccc(-c2c(C)nn(-c3nc(N)nc(-c4ccccn4)n3)c2N)c1`: > 100 µM (inactive). Next, `CNC(=O)C1Cc2ccccc2N1C(=O)COc1cccc(OC)c1` (centres undefined): > 100 µM (inactive); `Cc1nn(-c2nc(N)nc(-c3ccccn3)n2)c(N)c1-c1ccccc1`: 63 µM; `COc1ccc(C2CC(c3ccc(NS(C)(=O)=O)cc3)=NN2C(=O)c2cccs2)cc1OC` (centres undefined): > 100 µM (inactive). As to `COc1ccc(NS(=O)(=O)c2cc(NC(=O)c3ccc([N+](=O)[O-])s3)ccc2OC)cc1`, the IC50 is > 100 µM (inactive). Under `O=C(N[C@H](CO)c1ccccc1)c1ccc(-c2c[nH]c3nccc(C(F)(F)F)c23)s1` stands 63 µM. Next, `O=C(NCc1ccncc1)c1ccccc1N1CCCN(C(=O)Cc2ccc(F)c(F)c2)CC1`: > 100 µM (inactive); `Cc1cc2cncn2c(C2CCCCN2C(=O)c2cccs2)n1` (centres undefined): > 100 µM (inactive); `Oc1c(-c2n[nH]c(Cc3ccc(F)cc3)n2)ncc2cccnc12`: 25 µM. `CCS(=O)(=O)Nc1ccc(C2=NN(C(=O)c3cccs3)C(c3ccccc3OC)C2)cc1` (centres undefined): the IC50 is > 100 µM (inactive). Under `O=C(Nc1n[nH]c(-c2ccccn2)n1)C1CC1c1ccccc1` (centres undefined) stands > 100 µM (inactive); under `COc1cnc2ccc(=O)n(CCN3CCC(NC(=O)Cc4ccc(Cl)c(Cl)c4)CC3)c2c1`, 63 µM; under `COc1cc(NC(=O)Nc2cccc(CNC(=O)OC3CCCCC3)c2)ccc1-c1cnco1`, 40 µM. Next, `Cc1ccc2ccc(C(Nc3ccccn3)c3cccnc3)c(O)c2n1` (centres undefined): 20 µM.
